Values quoted from earlier work as cited in patent US20030026872A1, “Compositions having enhanced aqueous solubility and methods of their preparation” (The Procter & Gamble Co., priority 2001, published 2003).
Peptide text beside a SMILES is read from it.

Conditions: relative to sucrose

| Molecule | relative sweetening intensity (RSI) |
| --- | --- |
| OC[C@@H](O)[C@@H](O[C@@H]1O[C@H](CO)[C@H](O)[C@H](O)[C@H]1O)[C@H](O)[C@@H](O)CO [lactitol] | about 0.4 times that of sucrose |
| C[C@@H](NC(=O)[C@@H](N)CC(=O)O)C(=O)NC1C(C)(C)SC1(C)C [alitame] | about 2000 times that of sucrose |
| OC[C@H]1O[C@@](CO)(O[C@H]2O[C@H](CO)[C@@H](O)[C@H](O)[C@H]2O)[C@@H](O)[C@@H]1O [sucrose] | one |
| OC[C@@H](O)[C@@H](O)CO [erythritol] | about 0.7 times that of sucrose |
| cyclamates | about 30 times that of sucrose |
| CC(C)=CCC[C@](C)(O)[C@@H]1CCC(C)=CC1=O [hemandulcin] | about 1000 times that of sucrose |
| CC1=CC(=O)[N-]S(=O)(=O)O1.[K+] [acesulfame K] | about 200 times that of sucrose |
| OC[C@@H](O)[C@@H](O[C@H]1O[C@H](CO)[C@@H](O)[C@H](O)[C@H]1O)[C@H](O)[C@@H](O)CO [maltitol] | about 0.8 times that of sucrose |
| COC(=O)[C@H](Cc1ccccc1)NC(=O)[C@@H](N)CC(=O)O [aspartame, N-L-alpha-aspartyl-phenylalanine-l-methyl ester] (H-Asp-Phe-OMe) | about 180 times that of sucrose |
| C=C1C[C@@]23CC[C@H]4[C@@](C)(CCC[C@@]4(C)C(=O)O[C@@H]4O[C@H](CO)[C@@H](O)[C@H](O)[C@H]4O)[C@@H]2CC[C@]1(O[C@@H]1O[C@H](CO)[C@@H](O)[C@H](O)[C@H]1O[C@@H]1O[C@H](CO)[C@@H](O)[C@H](O)[C@H]1O)C3 [stevioside] | about 300 times that of sucrose |
| OC[C@@H](O)[C@@H](O)[C@H](O)[C@H](O)CO [mannitol] | about 0.7 times that of sucrose |
| OC[C@H]1O[C@H](O[C@]2(CCl)O[C@H](CCl)[C@@H](O)[C@@H]2O)[C@H](O)[C@@H](O)[C@H]1Cl [sucralose] | about 600 times that of sucrose |
| OC[C@@H](O)[C@@H](O)[C@H](O)[C@@H](O)CO [sorbitol] | about 0.6 times that of sucrose |
| isomalt | about 0.5 times that of sucrose |
| OC[C@@H](O)[C@H](O)[C@@H](O)CO [xylitol] | about equal to sucrose |
| O=C1NS(=O)(=O)c2ccccc21 [saccharin] | about 300 times that of sucrose |
